{
  "source": "patent US8618068B2",
  "about": "“Methods and low dose regimens for treating red blood cell disorders” (priority 2009, dated 2013)",
  "key": {"F-cells": {"tested_on": "F-cells", "assay": "F-cells in Bfu-e erythroid progenitor cultures", "type": "cell-based"}, "[1]": {"assay": "Phase 2 trial in sickle cell disease patients, safety", "type": "in vivo, human", "conditions": "10, 20, 30 mg/kg/day", "method": "A randomized, blinded dose-ranging Phase 1/2 clinical trial was performed in 24 US and Jamaican adult patients with sickle cell disease (including HbSS or S/β thalassemia). DMB was administered once daily for six week cycles of daily therapy with a 2 week treatment break between two cycles, then followed by a final 4 weeks without treatment. Three dose levels (10, 20, 30 mg/kg/day) were studied sequentially. Four out of 24 subjects were treated with placebo and 21 subjects were evaluable. Seven Patients (5 active/2 placebo) at 10 mg/kg, 6 patients (5 active/1 placebo) at 20 mg/kg, and 9 patients (7 active/1 placebo) at 30 mg/kg were randomized in the study. Patients ranged in age from 14 to 56 with a median age of 31 and were comprised of […]. Patients were followed for hematologic parameters focusing on fetal hemoglobin (HbF). HbF was measured by a Waters Empower 32 HPLC system with a Synchropak CM-300 column."}, "human γ-globin mRNA": {"tested_on": "human γ-globin mRNA", "assay": "Human γ-globin mRNA synthesis in βYAC transgenic mice", "type": "in vivo", "conditions": "IP 500 mg/kg/day", "description": "(§1) Transgenic mice containing the human β globin gene locus in a yeast artificial chromosome (βYAC) displaying the correct developmental regulation of ε-, γ-, and β-globin genes (with a silenced y-globin gene in the adult stage) were used to study the effects of DMB on γ-globin induction and erythroid cell production. In the μLCR-human A γ-globin transgenic mice, the y-globin mRNA expression relative to murine α-globin mRNA was increased by a mean of 1.8-fold above the baseline after treatment with DMB. In the βYAC transgenic mice at intraperitoneal (IP) doses of 500 mg/kg/day, DMB induced a 2-fold increase in human γ-globin mRNA synthesis relative to that of total non-α-globin. This level of induction was similar to that seen with 1,000 mg/kg/day of butyrate, and the changes were observed from 3 days after treatment initiation and persisted until 3 to 5 days after treatment termination."}, "γ-globin mRNA [2]": {"tested_on": "γ-globin mRNA", "assay": "γ-globin mRNA in μLCR-human Aγ-globin transgenic mice", "type": "in vivo", "conditions": "after treatment with DMB", "description": "as §1"}, "[3]": {"assay": "Pharmacokinetics of single doses in 5 baboons", "conditions": "monkey, in vivo", "method": "Pharmacokinetics analyses have been conducted with DMB and 2,2-dimethylbutyric acid neutralized with L-arginine in baboons, dogs, and rats. The AUC per dose varied between animals.\nPharmacokinetic analyses of 2,2-dimethylbutyrate was conducted as either the sodium salt or the L-arginine salt, via the oral or intravenous route, as single doses to 5 baboons at doses of 33.3, 83.3, 100, 125 or 167 mg/kg free acid.\nThe data collected on DMB in plasma allowed an assessment of pharmacokinetic parameters; however, since collection time points were not performed in some baboons during the terminal elimination phase, these determinations are preliminary. The AUC per dose varied between animals. The area under the plasma concentration time-curve (AUC0-24 hr) following oral administration of DMB at 83.3 or 125 mg/kg free acid (100 and 150 mg/kg with salt) ranged from 1962-9363 μmol·h/L ([…])."}, "in vivo": {"assay": "in vivo", "type": "in vivo", "description": "Completed toxicology studies conducted with DMB include a single-dose toxicity study in Sprague-Dawley rats, escalating dose toxicity study in Beagle dogs, a repeat dose study of 14-Day duration in Sprague-Dawley rats and repeat-dose toxicity studies of 28-Day duration in Sprague-Dawley rats and Beagle dogs, and 26-Week studies in Sprague-Dawley rats and Beagle dogs. […] Reproductive toxicity studies include two dose-range finding studies, one in Sprague-Dawley rats, the other in New Zealand white rabbits. DMB was administered once a day (QD) orally via gavage; doses are expressed as the sodium salt. In addition, an array of genotoxicity studies were conducted with DMB.\nThere were no abnormal macroscopic or microscopic observations associated with the elevated kidney or brain weights. These treatment-related findings were not considered adverse. The NOAEL for DMB administered to Sprague-Dawley rats for a minimum of 181 days was considered to be 500 mg/kg/day, whereas the NOEL for female Sprague-Dawley rats was 100 mg/kg/day."}, "[4]": {"assay": "Dose range-finding embryo/fetal developmental toxicity in rabbits", "type": "in vivo, New Zealand White rabbits", "method": "DMB was administered orally by gavage to 4 groups of 8 time-mated female New Zealand White rabbits once daily from gestation Days 7 through 20 at dosage levels of 50, 150, 300 and 600 mg/kg/day. […] All findings at necropsy occurred sporadically in single females, with similar frequencies in the control group and/or in a non dose-related manner and were considered incidental and unrelated to administration of DMB. Mean fetal weight in the 600 mg/kg/day group was 8.6% lower than the control group. Fetal weights in the 50, 150 and 300 mg/kg/day groups and fetal survival and external morphology at all dosage levels were unaffected by test article administration."}, "γ globin chain": {"tested_on": "γ globin chain", "assay": "γ globin chain protein synthesis in anemic baboons", "type": "in vivo", "conditions": "mean of three animals", "method": "Expression of γ-globin and erythroid cell production was evaluated in a primate model in which baboons are phlebotomized on a daily basis to simulate the chronic RBC destruction associated with hemoglobinopathies. In this model, baboons, aged 2 to 3 years, had 2.5 to 7 mL/kg of blood withdrawn daily, and the volume replaced with an identical volume of normal saline. Hemoglobin levels were lowered relative to control levels, but were maintained between 6.5 to 7.5 g/dL, the level necessary for the modulation of globin genes in this animal species. The animals were supplemented with iron dextran and folic acid. The phlebotomy regimen effectively exchanged the animals' total blood volume every 10 to 20 days.\nGlobin chain protein synthesis was measured in DMB treated animals using ^3H-leucine-labeled reticulocytes before and 2 and 4 days after treatment. Complete blood counts and reticulocyte counts were monitored 3 times per week and plasma concentrations of the test article was determined. DMB was administered intravenously (IV, daily) or orally via nasogastric gavage under light anesthesia (on 3 alternating days per week for up to 6 weeks), on a dose-escalation schedule with starting doses of 500 to 800 mg/kg. If γ globin induction was observed, lower doses (40-200 mg/kg) were tested. Recombinant human erythropoietin (rhu-EPO) was also administered in separate treatment courses to 2 baboons at doses of 300 U/kg three times per week subcutaneously as a positive control for the erythropoietic effects of DMB. Treatments were performed in individual baboons.\nInduction of γ globin chain expression was evaluated by measuring γ globin protein synthesis."}, "γ-globin mRNA [5]": {"tested_on": "γ-globin mRNA", "assay": "γ-globin mRNA in anemic baboons given HU and DMB", "type": "in vivo", "conditions": "HU 3 days/week"}},
  "note": "Several values for one entry are separate records, joined by “and”; a condition that tells them apart may be missing. Identical values can stand only once.",
  "data": [
    {"compound": "CCC(C)(C)C(=O)[O-].[Na+]", "note": "[DMB, Sodium 2,2-dimethylbutyrate]", "values": [
      {"measurement": "F-cells increase above F-cell levels in control cultures", "setting": "F-cells", "result": "32-71%"},
      {"measurement": "tolerability", "setting": "[1]", "result": "well tolerated"},
      {"measurement": "increase in human γ-globin mRNA synthesis relative to total non-α-globin", "setting": "human γ-globin mRNA", "result": 2, "unit": "fold"},
      {"measurement": "γ-globin mRNA expression relative to murine α-globin mRNA, mean increase above baseline", "setting": "γ-globin mRNA [2]", "result": 1.8, "unit": "fold"},
      {"measurement": "clearance", "setting": "[3]", "result": "0.833 to 7", "unit": "mL/min/kg"},
      {"measurement": "half-life", "setting": "[3]; half-life, range", "result": "1.2 to 7.9", "unit": "h"},
      {"measurement": "half-life", "setting": "[3]; median half-life", "result": 2.7, "unit": "h"},
      {"measurement": "AUC(0-t)", "setting": "[3]; po, 125 mg/kg", "result": "1960 µM·h to 9360 µM·h and 226 ng·h/mL to 1080 ng·h/mL"},
      {"measurement": "bioavailability", "setting": "[3]; po, Oral bioavailability over 24 hours", "result": "> 60", "unit": "%"},
      {"measurement": "NOAEL at 181 days", "setting": "in vivo; both sexes, rat, in vivo, minimum of 181 days, oral", "result": 500, "unit": "mg/kg/day"},
      {"measurement": "mortalities or clinical observations", "setting": "in vivo; daily oral, 26 weeks", "result": "no test article-associated mortalities or clinical observations"},
      {"measurement": "NOEL", "setting": "in vivo; female, Sprague-Dawley, rat, in vivo, 181 days", "result": 100, "unit": "mg/kg/day"},
      {"measurement": "adverse effects", "setting": "in vivo; rat, in vivo", "result": "no adverse effects"},
      {"measurement": "mean absolute and relative liver weights", "setting": "in vivo; rat, in vivo, 500 mg/kg/day", "result": "associated increases"},
      {"measurement": "maternal body weight gains and food consumption", "setting": "[4]; 300 mg/kg/day", "result": "Reduced mean maternal body weight gains and corresponding reduced mean food consumption"},
      {"measurement": "Mean fetal weight lower than the control group", "setting": "[4]; 600 mg/kg/day", "result": 8.6, "unit": "%"},
      {"measurement": "acceptability of dosage for a definitive embryo/fetal development study", "setting": "[4]; 600 mg/kg/day, maternal and embryo/fetal toxicity", "result": "considered unacceptable"},
      {"measurement": "maternal or fetal test article-related effects", "setting": "[4]; 50 and 150 mg/kg/day", "result": "no maternal or fetal test article-related effects"},
      {"measurement": "maternal macroscopic findings", "setting": "[4]; any dosage level", "result": "No remarkable maternal macroscopic findings"},
      {"measurement": "fetal weights (50, 150, 300 mg/kg/day), fetal survival and external morphology (all dosage levels)", "setting": "[4]; rabbit, in vivo", "result": "unaffected"},
      {"measurement": "Increase % γ Globin Chain Synthesis", "setting": "γ globin chain", "result": 6.6, "unit": "%"},
      {"measurement": "Increase Fold (γ globin chain synthesis)", "setting": "γ globin chain", "result": 2.9},
      {"measurement": "% γ Globin Chain Synthesis, Treatment", "setting": "γ globin chain; baseline 3.4", "result": 10.0, "unit": "%"},
      {"measurement": "γ-globin mRNA increase above baseline", "setting": "γ-globin mRNA [5]", "result": 290, "unit": "%"}
    ]}
  ]
}
